Like-named read-outs stand apart in the source and are kept apart here.
Experiments:
PC-3 = assay: WST-1 IC50 determination, PC-3; assay type: cell-based, human
Procedure: (§1) Cell lines and culturing. The following human cell lines were purchased from ATCC (ATCC, Manassas, Va.): prostate cancer cells (PC-3), triple negative breast cancer cells (MDA-MB-231), ovarian cancer cells (OVCAR-3), normal bone marrow (NBM) and normal fibroblast cells (MCR5A). MDA-MB-231 cells were grown at 37° C. with 5% CO2 atmosphere with DMEM (Life technologies, Carlsbad, Calif.) supplemented with heat-inactivated 10% (V/V) fetal bovine serum. OVCAR-3 and PC-3 cells were grown at 37° C. with 5% CO2 atmosphere with RPMI (Life technologies, Carlsbad, Calif.) supplemented with heat-inactivated 10% (V/V) fetal bovine serum. Cell lines were grown and maintained according to ATCC recommendations.
(§2) IC50 determination. Cell lines were seeded into 96-well plates the afternoon prior to treatment. Cell seeding number was determined by growing cells in log phase growth during drug treatment. Approximately 18 hours later, compounds were semi-serially diluted in dimethyl sulfoxide (DMSO) and then growth medium, and added to cells. Plates were incubated for 72 hours prior to addition of WST-1 (Promega, Madison Wis.). Plates were read after 4 additional hours of incubation at 37° C. using a Bio-Tek Synergy HT plate reader (Bio-Tek, Winooski, Vt.). Data was analyzed, graphed and IC50s generated using GraphPad Prism Software (Graphpad, La Jolla, Calif.).
(§3) IC50 determination: For the determination of IC50 for the azolamide class, the same protocol as described previously was followed.

A375 = conditions: read-out: IC50 of cisplatin; cited from earlier work
OVCAR-3 = assay: WST-1 IC50 determination, OVCAR-3; assay type: cell-based, human
Procedure: as §1, §2, §3

MDA-MB-231 = assay: WST-1 IC50 determination, MDA-MB-231; assay type: cell-based, human
Procedure: as §1, §2, §3

SW872 = conditions: read-out: IC50 of cisplatin; cited from earlier work
PANC-1 = conditions: read-out: IC50 of cisplatin; cited from earlier work
Hep2 = conditions: read-out: IC50 of cisplatin; cited from earlier work
MCF-7/DX = conditions: read-out: IC50 of cisplatin; cited from earlier work
U2-OS = conditions: read-out: IC50 of cisplatin; cited from earlier work
PNT1 = conditions: read-out: IC50 of cisplatin; cited from earlier work
HT29 = conditions: read-out: IC50 of cisplatin; cited from earlier work
CAPAN-1 = conditions: read-out: IC50 of cisplatin; cited from earlier work
Calu-3 = conditions: read-out: IC50 of cisplatin; cited from earlier work
HT1080 = conditions: read-out: IC50 of cisplatin; cited from earlier work
RD = conditions: read-out: IC50 of cisplatin; cited from earlier work
PC3 = conditions: read-out: IC50 of cisplatin; cited from earlier work
SH-SY5Y = conditions: read-out: IC50 of cisplatin; cited from earlier work
CFPAC-1 = conditions: read-out: IC50 of cisplatin; cited from earlier work
HOS = conditions: read-out: IC50 of cisplatin; cited from earlier work
A431 = conditions: read-out: IC50 of cisplatin; cited from earlier work
SAOS-2 = conditions: read-out: IC50 of cisplatin; cited from earlier work
[1] = Human liver microsome stability; assay type: in vitro ADME; conditions: human, liver microsomes
Text: An established method to determine the pharmacokinetic clearance of a compound in humans is to measure the degradation of the compound in the presence of human liver microsomes. The following is the half-lives of the four compounds in human liver microsomes: […]

MOLM14 = assay: WST-1 IC50 determination, MOLM14; assay type: cell-based; conditions: Homo sapiens
Procedure: as §2, §3

MV4-11 = assay: IC50 determination, MV4-11; assay type: cell-based; conditions: Homo sapiens, Acute monocyctic leukemia, read-out: Anticancer activities, MV4-11
Procedure: as §2, §3

Tolerability studies = assay type: in vivo; conditions: mice, 10 mg/Kg
THP1 = assay: WST-1 IC50 determination, THP1; assay type: cell-based; conditions: Homo sapiens, THP-1; THP1, 72 h; read-out: IC50 for killing Leukemia cell line
Procedure: as §2, §3

NBM = assay: WST-1 IC50 determination, normal bone marrow; assay type: cell-based, human
Procedure: as §1, §2, §3

U87 = assay: IC50 determination, U87; assay type: cell-based; conditions: Homo sapiens, U-87 MG; Glioblastoma; read-out: Anticancer activities, U87
Procedure: as §2, §3

[2] = tested on: triple-negative breast cancer cells; assay: Cancer cell migration; assay type: cell-based; conditions: increasing concentration
Text: FIG. 36. […] Red=negative control—no FCS in bottom well. Green=DMSO. Blue and pink=increasing concentration of 630-1.

MCR5A = assay: WST-1 IC50 determination, normal fibroblast; assay type: cell-based, human; conditions: normal fibroblast cell, 72 hours, read-out: IC50 ± SD, MCR5A
Procedure: as §1, §2

c-MYC Pu27 = assay: PCR stop assay, Pu27 template; assay type: biochemical; conditions: 10 μM compound
Procedure: (§4) PCR Stop Assay. This assay was performed by modifying a previously published protocol.
(§5) To the PCR reaction mixture (25 μL), 1×PCR buffer (New England Biolabs), 5 μM Pu27 and Pu27rev oligomers, various concentrations of ligands (DMZ, TMPyP4, DMZ1, DMZ9 and DMZ13) were added and incubated at 4° C. for 6 h. After that, 1 mM dNTPs, 5 units of Taq DNA polymerase (New England Biolabs) were added and PCR reactions were performed in a thermocycler, with the following conditions: 94° C. for 3 min, followed by 20 repeated cycles each having 94° C. for 30 s, 58° C. for 30 s, and 72° C. for 30 s. After PCR, amplified products were analyzed on 12% polyacrylamide gel with 1×TBE and SYBR Gold stained. This assay was also performed under the same conditions with Pu27-13,14 and Pu27rev.

c-kit2 = assay: FRET melting assay, c-kit2; assay type: binding; conditions: 0.2 μM dual-labeled DNA and 0.2 μM TMPyP4
Pu27-13,14 = assay: PCR stop assay, mutated control template; assay type: biochemical; conditions: 10 μM compound
Procedure: as §4, §5

duplex = assay: FRET melting assay, duplex DNA; assay type: binding; conditions: 0.2 μM dual-labeled DNA and 0.2 μM TMPyP4
G-quadruplexes = conditions: binding of classic G-tetrad-motif ligand to G-quadruplexes; cited from earlier work
c-MYC = assay: FRET melting assay, c-MYC; assay type: binding; conditions: 0.2 μM dual-labeled DNA and 0.2 μM TMPyP4
F21T = assay: FRET melting assay, F21T; assay type: binding; conditions: 0.2 μM dual-labeled DNA and 0.2 μM TMPyP4
k-RAS21R = assay: FRET melting assay, k-RAS21R; assay type: binding; conditions: 0.2 μM dual-labeled DNA and 0.2 μM TMPyP4
[3] = tested on: G-quadruplex DNAs (c-kit1, VEGF, bcl-2 2345 and TBA); assay: UV-visible titration with G-quadruplex DNA; assay type: binding; conditions: UV-visible titration conditions
Procedure: UV titration studies of DNA with the triazene ligands, DMZ and Triazene-1. The molar extinction coefficients at 260 nm for 22-mer c-kit1, 18-mer VEGF, 23-mer bcl-2 2345, 15-mer TBA and 20-mer 8 bp AT are as follows 226,700 M^−1 cm^−1, 169,800 M^−1 cm^−1, 227,300 M^−1 cm^−1, 143,300 M^−1 cm^1 and 205,500 M^−1 cm^−1, respectively. The concentration of ligands used in this study was 10 μM and the DNA concentrations were 0, 0.25, 1.5, 3, 5, 6, 7, 8, 9, 10, 20, 30, 40, 50, 100, and 15 μM. The buffer contained 250 mM KCl, 50 mM Tris-HCl (at pH 7.5). The following quadruplex DNA were tested: c-kit1, VEGF, bcl-2 2345, and TBA. Duplex DNA (8 bp AT) was also tested. The sample was first heated up to 95° C. for 5 min without the ligand and then cooled down to room temperature in 15 min. The ligand was then added and the mixture was incubated at 4° C. for ˜12 h before recording the data. In case of Triazene-1 and Triazene-2, the sample mixture contained 1% DMSO.

[4] = 72 hours, WST-1, read-out: Anticancer activity IC50 ± SD, PC-3
[5] = 72 hours, WST-1, read-out: Anticancer activity IC50 ± SD, OVCAR-3
[6] = 72 hours, WST-1, read-out: Anticancer activity IC50 ± SD, MDA-MB-231
[7] = Homo sapiens, PC-3, prostate cancer, read-out: Anticancer activities, PC3
[8] = Homo sapiens, MDA-MB-231, triple negative breast cancer, read-out: Anticancer activities, TNBC 231
[9] = Homo sapiens, Bone marrow cell, Normal bone marrow cells, read-out: Anticancer activities, NBM

## N.N.[Cl][Pt][Cl] [Cisplatin]
PC-3; [4]
  IC50: 10.5 ± 1.3 µM
PC-3; prostate cancer, read-out: Anticancer activities, PC3
  IC50: 10.5 µM
A375
  IC50: 6 µM
OVCAR-3; [5]
  IC50: 4.1 ± 1.8 µM
MDA-MB-231; [6]
  IC50: 11.7 ± 1 µM
MDA-MB-231; triple negative breast cancer, read-out: Anticancer activities, TNBC 231
  IC50: 11.7 µM
SW872
  IC50: 5 µM
PANC-1
  IC50: 15 µM
Hep2
  IC50: 7 µM
MCF-7/DX
  IC50: 7 µM
U2-OS
  IC50: 20 µM
PNT1
  IC50: 5 µM
HT29
  IC50: 22 µM
CAPAN-1
  IC50: > 50 µM
Calu-3
  IC50: > 50 µM
HT1080
  IC50: 9 µM
RD
  IC50: 6 µM
PC3
  IC50: 12 µM
SH-SY5Y
  IC50: 2 µM
CFPAC-1
  IC50: 38 µM
HOS
  IC50: 10 µM
A431
  IC50: 20 µM
SAOS-2
  IC50: 11 µM

## N=C(N)c1ccc(/N=N/c2c(N)ncc3ccccc23)cc1 [HSW308-4]
[1]; read-out: NADPH-dependent T½
  half-life: 3.27 h
[1]; read-out: NADPH-independent T½
  half-life: > 4 h
MOLM14; MOLM-14, MOLM14, 72 h, read-out: IC50 for killing Leukemia cell line
  IC50: 0.98 µM
MOLM14; MOLM-14, leukemia, read-out: Anticancer activities, Molm14
  IC50: 0.98 µM
PC-3; [7]
  IC50: 1.3 µM
PC-3; Homo sapiens, PC-3, read-out: IC50 for killing prostate cancer cell line (PC-3)
  IC50: 1 µM
OVCAR-3; Homo sapiens, OVCAR-3, read-out: IC50 for killing ovarian cancer cell line (OVCAR-3)
  IC50: 4.2 µM
MDA-MB-231; Homo sapiens, MDA-MB-231, read-out: IC50 for killing triple negative breast cancer cell line (231)
  IC50: 1.9 µM
MDA-MB-231; [8]
  IC50: 1.85 µM
MV4-11
  IC50: 0.92 µM
Tolerability studies
  tolerability: can be tolerated
THP1
  IC50: 2.6 µM
NBM; [9]
  IC50: 8.7 µM
U87
  IC50: 1.32 µM

## N=C(N)c1ccc(/N=N/c2c(N)ncc3ccc(Br)cc23)cc1 [HSW630-1]
[1]; read-out: NADPH-dependent T½
  half-life: 3.18 h
[1]; read-out: NADPH-independent T½
  half-life: 2.07 h
MOLM14; MOLM-14, read-out: Anticancer activities, Molm14
  IC50: 0.14 µM
PC-3; [7]
  IC50: 0.59 µM
[2]
  migration of cancer cells: prevents cancer cells from migrating
[2]; listed as 630-1
  migration of cancer cells: can inhibit migration
MDA-MB-231; [8]
  IC50: 0.48 to 0.92 µM
MV4-11
  IC50: 0.15 µM
Tolerability studies
  tolerability: can be tolerated
NBM; [9]
  IC50: 5.1 µM
U87
  IC50: 0.56 µM

## C[n+]1ccc(-c2c3nc(c(-c4cc[n+](C)cc4)c4ccc([nH]4)c(-c4cc[n+](C)cc4)c4ccc([nH]4)c(-c4cc[n+](C)cc4)c4nc2C=C4)C=C3)cc1 [TMPyP4, reference compound]
PC-3; [4]
  IC50: 14 ± 5.4 µM
OVCAR-3; [5]
  IC50: 14.6 ± 5.7 µM
MDA-MB-231; [6]
  IC50: 14.3 ± 4 µM
MCR5A
  IC50: 15.2 ± 6.6 µM
c-MYC Pu27
  polymerization/extension of oligomers Pu27 and Pu27rev: showed inhibition
c-kit2
  ΔTm c-kit2: 3.46 ± 1.03 °C
Pu27-13,14
  PCR product with non-G-quadruplex template: no PCR product was observed
duplex
  ΔTm duplex: 1.14 ± 0.52 °C
NBM; normal bone marrow, 72 hours, WST-1, read-out: IC50 ± SD, NBM
  IC50: 16.8 µM
G-quadruplexes
  Ka: ≈ 5×10^6 M^−1
c-MYC
  ΔTm c-MYC: 23.75 ± 0.52 °C
F21T
  ΔTm F21T: 4.01 ± 0.26 °C
k-RAS21R
  ΔTm k-RAS21R: 34.71 ± 0.93 °C

## c1ccc(N=NNc2ccccc2)cc1 [Triazene-2]
[3]
  self-aggregation: exhibited self-aggregation
